From ChEMBL document CHEMBL4610070, “Talauxins: Hybrid Phenalenone Dimers from Talaromyces stipitatus” (J Nat Prod, 2020)
In brackets after ≈: the same amount, converted by molar mass. Activity calls are given as the source filed them. No cut-off for these calls is given here.

Columns and labels:
Escherichia coli [1] = experiment: Antibacterial activity against Escherichia coli ATCC 25922 assessed as reduction in microbial growth after incubated for 48 hrs by resazurin dye based assay; type: functional, organism-based
Bacillus subtilis [2] = experiment: Antibacterial activity against Bacillus subtilis ATCC 6633 assessed as reduction in microbial growth after incubated for 48 hrs by resazurin dye based assay; type: functional, organism-based; settings: ATCC 6633, 48 h
Candida albicans [3] = experiment: Antifungal activity against Candida albicans ATCC 10231 assessed as reduction in microbial growth up to 100 ug/ml after incubated for 48 hrs by bromocresol green dye based assay; type: functional, organism-based
Bacillus subtilis [4] = experiment: Antibacterial activity against Bacillus subtilis ATCC 6633 assessed as reduction in microbial growth up to 100 ug/ml after incubated for 48 hrs by resazurin dye based assay; type: functional, organism-based
Escherichia coli [5] = experiment: Antibacterial activity against Escherichia coli ATCC 25922 assessed as reduction in microbial growth up to 100 ug/ml after incubated for 48 hrs by resazurin dye based assay; type: functional, organism-based
Saccharomyces cerevisiae [6] = experiment: Antifungal activity against Saccharomyces cerevisiae ATCC 9763 assessed as reduction in microbial growth up to 100 ug/ml after incubated for 48 hrs by bromocresol green dye based assay; type: functional, organism-based
Mus musculus = species: Mus musculus; experiment: Antiproliferative activity against mouse NS1 cells assessed as reduction in cell viability up to 100 ug/ml after 48 hrs by resazurin dye based assay; type: functional
[7] = Antiproliferative activity against mouse NS1 cells assessed as reduction in cell viability after 48 hrs by resazurin dye based assay; type: functional; settings: for IC50: NS1, 48 h; for MIC: 48 h
Saccharomyces cerevisiae [8] = experiment: Antifungal activity against Saccharomyces cerevisiae ATCC 9763 assessed as reduction in microbial growth after incubated for 48 hrs by bromocresol green dye based assay; type: functional, organism-based; settings: ATCC 9763, 48 h
Candida albicans [9] = experiment: Antifungal activity against Candida albicans ATCC 10231 assessed as reduction in microbial growth after incubated for 48 hrs by bromocresol green dye based assay; type: functional, organism-based

Row | Compound | IC50 (Escherichia coli [1]) | IC50 (Bacillus subtilis [2]) [µM] | Activity (Candida albicans [3]) | Activity (Bacillus subtilis [4]) | Activity (Escherichia coli [5]) | Activity (Saccharomyces cerevisiae [6]) | Activity (Mus musculus) | IC50 [7] [µM] | MIC [7] [µg/mL] | IC50 (Saccharomyces cerevisiae [8]) [µM] | IC50 (Candida albicans [9]) | MIC (Bacillus subtilis [2]) [µg/mL]
1 | CC1(C)S[C@@H]2[C@H](NC(=O)[C@H](N)c3ccccc3)C(=O)N2[C@H]1C(=O)O [AMPICILLIN] | Not Active | 0.9 |  |  |  |  |  |  |  |  |  | 
2 | CO[C@@]12c3c(C)cc(O)c4c(=O)n([C@H](CC(C)C)C(=O)O)cc(c34)C(=O)[C@@H]1[C@]13COC(=O)c4c(O)cc(C)c(c41)C(=O)[C@H]2[C@@H]3OC(C)=O |  |  | inactive | inactive | inactive | inactive | inactive |  |  |  |  | 
3 | CO[C@@]12c3c(C)cc(O)c4c(=O)n([C@@H](CCC(N)=O)C(=O)O)cc(c34)C(=O)[C@@H]1[C@]13COC(=O)c4c(O)cc(C)c(c41)C(=O)[C@H]2[C@@H]3OC(C)=O |  |  | inactive | inactive | inactive | inactive | inactive |  |  |  |  | 
4 | CC[C@@H](C)[C@H](C(=O)O)n1cc2c3c(c(C)cc(O)c3c1=O)[C@]1(OC)[C@H](C2=O)[C@]23COC(=O)c4c(O)cc(C)c(c42)C(=O)[C@H]1[C@@H]3OC(C)=O |  |  | inactive | inactive | inactive | inactive | inactive |  |  |  |  | 
5 | Cc1cc(O)c2c3c1C(=O)[C@@H]1C4=C(C(=O)c5cn([C@H](C(=O)O)C(C)C)c(=O)c6c(O)cc(C)c4c56)[C@@]3(COC2=O)[C@H]1O |  |  | inactive | inactive | inactive | inactive | inactive |  |  |  |  | 
6 | O=c1[nH]cc(F)c(=O)[nH]1 [FLUOROURACIL] |  |  |  |  |  |  |  | 4.6 |  |  |  | 
7 | CO[C@@]12c3c(C)cc(O)c4c(=O)n([C@@H](CC(C)C)C(=O)O)cc(c34)C(=O)[C@@H]1[C@]13COC(=O)c4c(O)cc(C)c(c41)C(=O)[C@H]2[C@@H]3OC(C)=O |  |  | inactive | inactive | inactive | inactive | inactive |  |  |  |  | 
8 | CC(=O)CC1(O)C(=O)c2c(O)cc(C)c3c(O)cc(O)c(c23)C1=O (stereo not drawn) |  |  | inactive | inactive | inactive | inactive | inactive |  |  |  |  | 
9 | Cc1cc(O)c2c3c(c(O)cc(O)c13)C(=O)C(O)=C2O | Not Active | 265 |  |  |  |  |  | 70 | 25 (≈ 91.2 µM) | > 400 | Not Active | 100
10 | CO[C@@]12c3c(C)cc(O)c4c(=O)n([C@H](C(=O)O)C(C)C)cc(c34)C(=O)[C@@H]1[C@]13COC(=O)c4c(O)cc(C)c(c41)C(=O)[C@H]2[C@@H]3OC(C)=O |  |  | inactive | inactive | inactive | inactive | inactive |  |  |  |  | 
11 | CC[C@H](C)[C@@H](C(=O)O)n1cc2c3c(c(C)cc(O)c3c1=O)[C@]1(OC)[C@H](C2=O)[C@]23COC(=O)c4c(O)cc(C)c(c42)C(=O)[C@H]1[C@@H]3OC(C)=O |  |  | inactive | inactive | inactive | inactive | inactive |  |  |  |  | 
12 | Clc1ccccc1C(c1ccccc1)(c1ccccc1)n1ccnc1 [CLOTRIMAZOLE] |  |  |  |  |  |  |  |  |  | 0.4 | Not Active | 
13 | CO[C@@]12c3c(C)cc(O)c4c(=O)n([C@@H](CCC(=O)O)C(=O)O)cc(c34)C(=O)[C@@H]1[C@]13COC(=O)c4c(O)cc(C)c(c41)C(=O)[C@H]2[C@@H]3OC(C)=O |  |  | inactive | inactive | inactive | inactive | inactive |  |  |  |  | 
14 | CO[C@@]12c3c(C)cc(O)c4c(=O)occ(c34)C(=O)[C@@H]1[C@]13COC(=O)c4c(O)cc(C)c(c41)C(=O)[C@H]2[C@@H]3OC(C)=O | Not Active | > 200 |  |  |  |  |  | 140 | 100 (≈ 183 µM) | > 200 | Not Active | 
